From ChEMBL document CHEMBL1614632, “Trend analysis of a database of intravenous pharmacokinetic parameters in humans for 670 drug compounds” (Drug Metab Dispos, 2008) come the findings set out here.

A short description of data set [1]: clinical. The conditions noted are these: human, in vivo, iv.
The nature of data set [2]: clinical. To be noted: human, in vivo, iv, t1/2.
The nature of data set [3]: clinical. To be noted: human, in vivo, iv, Vdss.
Data set [4] in a line: clinical. To be noted: human, in vivo, iv, CL.

In general, MRT refers to the average time that molecules of a dose stay in the body. For orientation: half-life means the time needed for the level to fall by half in the phase considered. Read a high half-life as slow decline. Broadly, the Vd is a proportionality between amount in the body and measured concentration, not a real space. The clearance is the rate of elimination divided by the concentration. The low end stands for a low capacity for elimination, the high end for a high capacity for elimination. In the case of `Cn1c(=O)c2c(ncn2C)n(C)c1=O` [CAFFEINE], in data set [1], the MRT came to 7.5 h. In data set [2], the half-life was 4.9 h. Also, the distribution volume (Vd) in data set [3] amounted to 0.63 L/kg. In data set [4], this compound returned a clearance of 1.4 mL/min/kg.
`CC1(C)S[C@@H]2[C@H](NC(=O)C(C(=O)O)c3ccccc3)C(=O)N2[C@H]1C(=O)O` (some centres undefined) [CARBENICILLIN] registered a mean residence time (MRT) in data set [1] of 1.5 h. In addition, in data set [2], the half-life was 1.1 h. Further, the Vd in data set [3] turned out to be 0.17 L/kg. The same compound gave a clearance in data set [4] of 1.9 mL/min/kg.
On the same counts, the results for `COc1ccccc1OCCNCC(O)COc1cccc2[nH]c3ccccc3c12` (centres undefined) [CARVEDILOL] are 2.8 h, 2.4 h, 1.3 L/kg and 7.8 mL/min/kg.
On the same counts, the results for `CC1=C(C(=O)O)N2C(=O)[C@@H](NC(=O)[C@H](N)c3ccc(O)cc3)[C@H]2SC1` [CEFADROXIL] are 1.5 h, 1.1 h, 0.23 L/kg and 2.5 mL/min/kg.
As to `N[C@@H](C(=O)N[C@@H]1C(=O)N2C(C(=O)O)=C(CSc3c[nH]nn3)CS[C@H]12)c1ccc(O)cc1` [CEFATRIZINE], the mean residence time MRT in data set [1] came to 1.1 h. The same compound showed a half-life in data set [2] of 1.2 h. Further, the Vd in data set [3] was found to be 0.22 L/kg. Further, the clearance in data set [4] came to 3.3 mL/min/kg.
For `CC=CC1=C(C(=O)O)N2C(=O)[C@@H](NC(=O)[C@H](N)c3ccc(O)cc3)[C@H]2SC1` [CEFPROZIL], the mean residence time MRT in data set [1] was determined as 1.2 h. Further, in data set [2], the half-life is 1.2 h. This compound also came in with a Vd in data set [3] of 0.21 L/kg. The compound further displayed a clearance in data set [4] of 2.9 mL/min/kg.
The compound `CC1=C(C(=O)O)N2C(=O)[C@@H](NC(=O)[C@H](N)C3=CCC=CC3)[C@H]2SC1` [CEPHRADINE] came in with an MRT in data set [1] of 1.1 h. Besides, the half-life in data set [2] is 0.85 h. Also, in data set [3], the distribution volume (Vd) turned out to be 0.21 L/kg. In data set [4], the clearance came out at 3.3 mL/min/kg.
The corresponding values for `COCc1c(C(C)C)nc(C(C)C)c(/C=C/[C@@H](O)C[C@@H](O)CC(=O)O)c1-c1ccc(F)cc1` [CERIVASTATIN] are 1.8 h, 1.8 h, 0.33 L/kg and 2.9 mL/min/kg.
The corresponding values for `O=C(O)CCCc1ccc(N(CCCl)CCCl)cc1` [CHLORAMBUCIL] are 1.5 h, 1.1 h, 0.26 L/kg and 2.8 mL/min/kg.
On the same counts, the results for `Clc1cccc(N2CCNCC2)c1` [CHLOROPHENYLPIPERAZINE] are 7 h, 4.7 h, 2.5 L/kg and 6.1 mL/min/kg.
Compound `CN(C)CCCN1c2ccccc2Sc2ccc(Cl)cc21` [CHLORPROMAZINE] showed a mean residence time MRT in data set [1] of 10 h. In data set [2], this compound gave a half-life of 11 h. This compound returned a Vd in data set [3] of 10 L/kg. Also, in data set [4], the clearance was determined as 16 mL/min/kg.
Compound `CCCNC(=O)NS(=O)(=O)c1ccc(Cl)cc1` [CHLORPROPAMIDE] registered an MRT in data set [1] of 70 h. For the same compound, the half-life in data set [2] was 46 h. In data set [3], this compound gave a Vd of 0.19 L/kg. This compound also showed a clearance in data set [4] of 0.045 mL/min/kg.
Compound `CN(C)[C@@H]1C(O)=C(C(N)=O)C(=O)[C@@]2(O)C(O)=C3C(=O)c4c(O)ccc(Cl)c4[C@@](C)(O)[C@H]3C[C@@H]12` [CHLORTETRACYCLINE] registered a mean residence time MRT in data set [1] of 7.4 h. The compound also showed a half-life in data set [2] of 7 h. In data set [3], this compound returned a volume of distribution (Vd) of 0.9 L/kg. In data set [4], this compound came in with a clearance of 2 mL/min/kg.
In the case of `NS(=O)(=O)c1cc(C2(O)NC(=O)c3ccccc32)ccc1Cl` (centres undefined) [CHLORTHALIDONE], the MRT in data set [1] is 43 h. The same compound gave a half-life in data set [2] of 36 h. In data set [3], this compound came in with a Vd of 3.9 L/kg. The compound also had a clearance in data set [4] of 1.5 mL/min/kg.
`CCC#CC[C@H](C)[C@H](O)C#C[C@@H]1[C@H]2C/C(=C/COCC(=O)O)C[C@H]2C[C@H]1O` [CICAPROST] had an MRT in data set [1] of 0.35 h. Besides, the half-life in data set [2] is 1.1 h. This compound also yielded a volume of distribution (Vd) in data set [3] of 0.08 L/kg. Moreover, the clearance in data set [4] came to 3.8 mL/min/kg.
On the same counts, the results for `Nc1ccn(C[C@@H](CO)OCP(=O)(O)O)c(=O)n1.O.O` [CIDOFOVIR] are 3.3 h, 2.6 h, 0.49 L/kg and 2.5 mL/min/kg.
